From patent US20250281457A1, “TREATMENT OR PREVENTION OF DENGUE VIRAL INFECTION” (Janssen Pharmaceuticals, Inc., priority 2022, published 2025)

Assay: Safety and tolerability, adverse events (Example 5)
Format: in vivo, human
Method: Safety and tolerability of Compound (a) was evaluated throughout the study, as described in Example 1.

Q: For `COc1cc(NC(C(=O)c2c[nH]c3ccc(OC(F)(F)F)cc23)c2ccc(Cl)cc2OC)cc(S(C)(=O)=O)c1` (centres unmarked) [Compound (a)], which Related adverse events (Panel I (LD 450 mg twice daily for two days, MD 900 mg Q7D)) is on record?
A: no related AEs

Q: And the Related adverse events (Panel II (LD 450 mg twice daily for two days, MD 450 mg Q3D or Q4D))?
A: one Grade 1 AE of skin burning sensation considered related

Q: And the Related adverse events (Panel III (LD 150 mg twice daily for two days, MD 300 mg Q7D))?
A: no related AEs

Q: And the Related adverse events (Panel IV (LD 150 mg twice daily for two days, MD 150 mg Q3D or Q4D))?
A: two Grade 1 AE of pruritic rash considered related

Q: What about the “Grade 2 Treatment Emergent Events, overall” value (Panels I-IV) of the same compound?
A: 4

Q: And the “Grade 3 Treatment Emergent Events, overall” value (Panels I-IV)?
A: No

Q: And the “Safety and tolerability, overall conclusion” value (Panels I-IV)?
A: safe and well tolerated

Q: And the “serious adverse events (SAEs) or/and serious unexpected adverse reactions (SUSARs) observed” value (Panels I-IV)?
A: No
